Experimental data reported in patent US20260274835A1, “A3 ADENOSINE RECEPTOR POSITIVE ALLOSTERIC MODULATORS” (The Medical College of Wisconsin, Inc., priority 2022, published 2026).

Molecular target: T1, WT hA3ARs (Homo sapiens, UniProt P0DMS8)
T1 construct: The full-length mouse (as previously described^25), human (purchased from the cDNA Resource Center), and human/mouse chimeric
T1 sequence (P0DMS8 1-318): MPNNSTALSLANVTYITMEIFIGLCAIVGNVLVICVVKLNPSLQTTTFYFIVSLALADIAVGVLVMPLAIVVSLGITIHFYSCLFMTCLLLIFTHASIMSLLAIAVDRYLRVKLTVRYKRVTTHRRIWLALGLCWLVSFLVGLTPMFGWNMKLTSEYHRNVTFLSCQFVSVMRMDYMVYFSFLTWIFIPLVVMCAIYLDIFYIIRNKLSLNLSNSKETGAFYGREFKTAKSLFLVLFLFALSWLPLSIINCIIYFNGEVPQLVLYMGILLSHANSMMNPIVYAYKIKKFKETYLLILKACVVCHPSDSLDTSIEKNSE
Experiment: [35S]GTPγS binding assay, Cl-IB-MECA concentration-response with modulator, HEK293 cell membranes
Assay type: biochemical
Details: for Emax (%): PAM derivative 1.0 μM, [35S]GTPγS binding induced by Cl-IB-MECA, WT hA3ARs, mean ± SEM, n = 3; for Emax (%) / IC50 ratio: Table 3; for IC50 ratio: ratio of IC50 values for Cl-IB-MECA, DMSO control compared to 100 nM PAM derivative
Excerpt: Creation of stable HEK293 cell lines expressing wild-type and human/mouse chimeric A3ARs: The full-length mouse (as previously described^25), human (purchased from the cDNA Resource Center), and human/mouse chimeric (custom synthesized by TOP Gene Technologies, St. Laurent, Quebec) A3AR cDNAs were subcloned into pcDNA3.1. The constructs were transfected into HEK293 cells (American Type Culture Collection, Manassas, VA) using Lipofectamine 2000 reagent (Invitrogen, Waltham, MA) and selected with 2 mg/ml of G418 in cell culture media (DMEM with 10% fetal bovine serum, 100 units/ml penicillin, and 100 μg/ml streptomycin). Cell lines derived from individual clones were maintained in cell culture media containing 0.6 mg/ml G418.
Membrane preparations: Transfected HEK293 cells were washed with PBS followed by homogenization in Buffer A containing 10 mM Na+-HEPES, 10 mM EDTA, 1 mM benzamidine (pH 7.4) and centrifugation at 27,000×g for 30 min at 4° C. Cell pellets were subsequently re-homogenized in HE buffer containing 10 mM Na+-HEPES, 1 mM EDTA, 1 mM benzamidine (pH 7.4) and re-centrifuged. The supernatant was discarded, and cell pellets were resuspended in HE buffer containing 10% sucrose and stored at −20° C.
[^35S]GTPγS binding assays: Cell membranes (5 μg protein) isolated from transfected HEK293 cells were pre-treated with modulators for one hour in 100 μl GTPγS binding buffer (50 mM Tris HCL [pH 7.4], 1 mM EGTA, 10 mM MgCl2, 100 mM NaCl, 0.004% CHAPS, and 0.5% BSA) in a 96-well large-volume polypropylene assay plate. In all assays, ZM-241385 (300 nM) and PSB-603 (300 nM) were included to block A2BARs expressed endogenously in HEK293 cells. Adenosine deaminase (ADA) (1 μl/ml) was also included to degrade any endogenous adenosine that might be produced during the assay, except when adenosine was used as the orthosteric agonist. The reactions were initiated by the addition of ~0.2 nM [^35S]GTPγS and agonist in 100 μl GTPγS binding buffer and allowed to incubate for two hours at room temperature. At the end of the two-hour incubation period, the membranes were harvested by rapid filtration through Whatman GF/B filters that had been pre-soaked for two hours in GTPγS binding buffer containing 0.02% CHAPS using a 96-well cell harvester (Brandel, Gaithersburg, MD). Radioactivity trapped in the filters was measured by liquid scintillation counting. Non-specific binding of [^35S]GTPγS was determined in the presence of 10 μM unlabeled GTPγS.
Data Analysis: EMax and EC50 values were calculated from data obtained from agonist concentration-response curves according to: E=([…])/(EC50+x), in which x is the agonist concentration. All values were statistically compared using a two-tailed unpaired Student's t-test or two-tailed paired Student's t-test, as indicated. For dissociation binding assays, fit to a one-phase exponential decay model: Y=(Y0−NS)^(−kxt), in which Y0 is specific binding at time 0, k is the dissociation rate constant, and t is the elapsed time. All values are presented as the mean±SEM. A p value <0.05 was considered statistically significant.
The two series of modulators were evaluated in a [^35S]GTPγS binding assay using isolated HEK293 cell membranes expressing the h A3AR, which detects receptor-induced G protein activation. For these studies, concentration-response curves with the orthosteric agonist Cl-IB-MECA were assessed in the presence of vehicle or 0.1, 1, or 10 μM modulator compound.

[1] = increasing concentrations of modulator (0.1, 1, 10 μM)

Emax (%) | IC50 ratio | SMILES | effect on EC50 (potency) of agonist Cl-IB-MECA, in words [1] | effect on Emax (efficacy) of agonist Cl-IB-MECA, in words [1]
177.8 ± 11.5% | 1.12 | Cn1c(C2CCCCC2)nc2c(Nc3ccc(Cl)c(Cl)c3)nc3ccccc3c21 [35 (MRS8206)] | – | –
127.0 ± 6.0% | 0.491 | CN(c1ccc(Cl)c(Cl)c1)c1nc2ccccc2c2[nH]c(C3CCCCC3)nc12 [45 (RK006-100-1, BS1007)] | – | –
150.6 ± 5.8% | 0.738 | Clc1ccc(Oc2nc3ccccc3c3[nH]c(C4CCCCC4)nc23)cc1Cl [46 (RK007-4-1, BS1006)] | – | –
137.6 ± 7.3% | 1.11 | Clc1ccc(Sc2nc3ccccc3c3[nH]c(C4CCCCC4)nc23)cc1Cl [47 (RK007-2-1, BS1005)] | – | –

Further lines, the compound ahead of its results:

SMILES | Emax (%) | IC50 ratio | effect on EC50 (potency) of agonist Cl-IB-MECA, in words [1] | effect on Emax (efficacy) of agonist Cl-IB-MECA, in words [1]
OCCn1c(C2CCCCC2)nc2c(Nc3ccc(Cl)c(Cl)c3)nc3ccccc3c21 [36 (MRS8236)] | 119.3 ± 6.2% | 0.764 | – | –
Clc1ccc(Nc2nc3ccccc3c3oc(C4CCCCC4)nc23)cc1Cl [41 (RK005-84-1, BS1002)] | 149.9 ± 8.8% | 0.406 | – | –
Clc1ccc(Nc2nc3ccccc3c3sc(C4CCCCC4)nc23)cc1Cl [42 (RK005-79-1, BS1001)] | 192.6 ± 11.2% | 0.505 | – | –
O=C(Nc1cc(Nc2ccc(Cl)c(Cl)c2)nc2ccccc12)C1CCCCC1 [LUF6096, reference compound] | – | – | without reducing the potency of CI-IB-MECA | produced the greatest increase in efficacy
